# pEC50: −log10 of the molar value.
# How the values were obtained:
# [1] = Toxicity in HEL cells assessed as induction of cell morphology changes; assay type: cell-based; conditions: human
# [2] = system: Human alphaherpesvirus 1; assay: Antiviral activity against thymidine kinase deficient and acyclovir-resistant HSV1 KOS infected in HEL cells assessed as inhibition of virus-induced cytopathic effect; assay type: functional, organism-based; conditions: Human alphaherpesvirus 1, KOS
# [3] = system: Vesicular stomatitis virus; assay: Antiviral activity against Vesicular stomatitis virus infected in HEL cells assessed as inhibition of virus-induced cytopathic effect; assay type: functional, organism-based
# [4] = system: Vaccinia virus; assay: Antiviral activity against Vaccinia virus infected in HEL cells assessed as inhibition of virus-induced cytopathic effect; assay type: functional, organism-based; conditions: Orthopoxvirus vaccinia
# [5] = system: Human alphaherpesvirus 2; assay: Antiviral activity against HSV2 G infected in HEL cells assessed as inhibition of virus-induced cytopathic effect; assay type: functional, organism-based; conditions: Human alphaherpesvirus 2, strain G
# [6] = system: Human alphaherpesvirus 1; assay: Antiviral activity against HSV1 KOS infected in HEL cells assessed as inhibition of virus-induced cytopathic effect; assay type: functional, organism-based; conditions: Human alphaherpesvirus 1, KOS
# [7] = Toxicity in MDCK cells assessed as induction of cell morphology changes; assay type: cell-based, Canis lupus familiaris; conditions: dog
# [8] = system: Influenza B virus; assay: Antiviral activity against Influenza B virus (B/Hong Kong/05/1972) […] infected in MDCK cells assessed as inhibition of virus-induced cytopathic effect; assay type: functional, cell-based; conditions: B/Hong Kong/05/1972, MDCK
# [9] = system: H3N2 subtype; assay: Antiviral activity against Influenza A virus (A/Hong Kong/7/1987(H3N2)) […] infected in MDCK cells assessed as inhibition of virus-induced cytopathic effect; assay type: functional, organism-based
# [10] = system: Influenza A virus; assay: Antiviral activity against Influenza A virus (A/Puerto Rico/8/1934(H1N1)) H1N1 infected in MDCK cells assessed as inhibition of virus-induced cytopathic effect; assay type: functional, organism-based
# [11] = system: Enterococcus faecalis; assay: Antimicrobial activity against Enterococcus faecalis 15376 over-expressing vanA; assay type: functional
# [12] = system: Enterococcus faecalis; assay: Antimicrobial activity against Enterococcus faecalis ATCC 51299 over-expressing vanB; assay type: functional
# [13] = system: Staphylococcus epidermidis; assay: Antimicrobial activity against Staphylococcus epidermidis over-expressing MecA; assay type: functional
# [14] = system: Enterococcus faecalis; assay: Antimicrobial activity against Enterococcus faecalis ATCC 29212; assay type: functional
# [15] = system: Staphylococcus epidermidis; assay: Antimicrobial activity against Staphylococcus epidermidis ATCC 35984 biofilms; assay type: functional
# [16] = system: Staphylococcus aureus; assay: Antimicrobial activity against methicillin-resistant Staphylococcus aureus ATCC 33591; assay type: functional
# [17] = system: Bacillus subtilis; assay: Antimicrobial activity against Bacillus subtilis ATCC 6633; assay type: functional
# [18] = system: Staphylococcus aureus; assay: Antimicrobial activity against methicillin-sensitive Staphylococcus aureus ATCC 29213; assay type: functional
SMILES,MCC [1] [µM],pEC50 [2],pEC50 [3],pEC50 [4],pEC50 [5],pEC50 [6],MCC [7] [µM],pEC50 [8],pEC50 [9],pEC50 [10],MBC [11] [µg/mL],MIC [11] [µg/mL],MBC [12] [µg/mL],MIC [12] [µg/mL],MBC [13] [µg/mL],MIC [13] [µg/mL],MBC [14] [µg/mL],MIC [14] [µg/mL],MBC [15] [µg/mL],MIC [15] [µg/mL],also measured
CC(=O)N[C@H]1[C@H](O[C@@H]2c3ccc(c(Cl)c3)Oc3cc4cc(c3O)Oc3ccc(cc3Cl)C[C@H]3NC(=O)[C@H](n5cc6cc7ccccc7cc6c5Sc5ncccn5)c5ccc(O)c(c5)Oc5cc(O)cc(c5)[C@H](NC3=O)C(=O)N[C@H]4C(=O)N[C@H]3C(=O)N[C@@H]2C(=O)N[C@H](C(=O)O)c2cc(O)cc(O)c2-c2cc3ccc2O)O[C@H](CO)[C@@H](O)[C@@H]1O,≥ 100,4.35,< 4.00,5.00,4.57,4.40,13,< 4.30,6.27,6.27,256,0.5,256,1,256,0.015,256,0.015,0.5,0.015,MBC [16]: 0.5 µg/mL; MIC [16]: 0.015 µg/mL; MBC [17]: 2 µg/mL; MIC [17]: 0.0313 µg/mL; MBC [18]: 0.5 µg/mL; MIC [18]: 0.015 µg/mL
CC(=O)N[C@H]1[C@H](O[C@@H]2c3ccc(c(Cl)c3)Oc3cc4cc(c3O)Oc3ccc(cc3Cl)C[C@H]3NC(=O)[C@H](n5cc6ccccc6c5Sc5ccccc5)c5ccc(O)c(c5)Oc5cc(O)cc(c5)[C@H](NC3=O)C(=O)N[C@H]4C(=O)N[C@H]3C(=O)N[C@@H]2C(=O)N[C@H](C(=O)O)c2cc(O)cc(O)c2-c2cc3ccc2O)O[C@H](CO)[C@@H](O)[C@@H]1O,≥ 20,≤ 4.70,< 4.70,< 4.70,5.05,5.05,4,< 4.00,< 4.00,< 4.00,32,2,256,2,32,2,256,0.0075,0.5,0.0165,MBC [16]: 2 µg/mL; MIC [16]: 0.0625 µg/mL; MBC [17]: 1 µg/mL; MIC [17]: 1 µg/mL; MBC [18]: 128 µg/mL; MIC [18]: 0.125 µg/mL
CC(=O)N[C@@H]1[C@@H](OC(C)=O)[C@H](OC(C)=O)[C@@H](COC(C)=O)O[C@H]1Sc1c2ccccc2cn1[C@H]1C(=O)N[C@@H]2Cc3ccc(c(Cl)c3)Oc3cc4cc(c3O)Oc3ccc(cc3Cl)[C@@H](O[C@@H]3O[C@H](CO)[C@@H](O)[C@H](O)[C@H]3NC(C)=O)[C@@H]3NC(=O)[C@H](NC(=O)[C@@H]4NC(=O)[C@@H](NC2=O)c2cc(O)cc(c2)Oc2cc1ccc2O)c1ccc(O)c(c1)-c1c(O)cc(O)cc1[C@@H](C(=O)O)NC3=O,> 100,4.35,< 4.00,4.35,4.40,4.40,20,< 4.00,< 4.00,< 4.00,256,0.0625,256,2,32,2,256,2,2,0.0075,MBC [16]: 2 µg/mL; MIC [16]: 0.0625 µg/mL; MBC [17]: 1 µg/mL; MIC [17]: 0.25 µg/mL; MBC [18]: 1 µg/mL; MIC [18]: 0.125 µg/mL
